Assay results published in patent US20240002379A1, “ASYMMETRIC CONJUGATE COMPOUNDS” (Pheon Therapeutics Ltd., priority 2016, published 2024).

How the values were obtained:
[1] = tested on: LIM1215 cell line (gastric); assay: MTT cytotoxicity assay, LIM1215; format: cell-based; conditions: LIM1215; MTT assay, 72 hour incubation; read-out: Cytotoxicity LIM1215 (72 hours)
Outline: (§1)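 Cells seeded at 1800/well in RPMI1640 + 10% FBS, adhered overnight, then exposed to compound 72 h at 37° C. Survival by MTT (500 μg/ml, 4 h), formazan in DMSO read at 540 nm, blank-corrected versus untreated wells; IC50 read from concentration–survival plot.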

[2] = tested on: TyrT DNA fragment; assay: DNA cleavage assay, TyrT fragment; format: biochemical
Procedure: The ability of 13 and of a series of compounds to cleave double-stranded DNA was investigated using a modification of the previously established DNA footprinting assay (34). Following an overnight incubation of the ligand-DNA complexes, the mixture was mixed with strand separation buffer containing 10 mM EDTA, 10 mM NaOH, 0.1% bromophenol blue, 80% formamide and incubated at 100° C. for 3 min. The mixture was then immediately cooled on ice and run on an 8% denaturing gel. […] Using the GA marker, these additional bands were identified as cleavage products produced by 13 at certain A sites of the DNA fragment.
The preparation of the TyrT DNA fragment (FIG. 8) and HexARev DNA fragment (FIG. 15) have been previously described (34). Briefly, the sequence which had been cloned into the BamHI site of pUC18 was obtained by cutting with HindIII and EcoRI. Radiolabelled DNA fragments were prepared by filling in the 3′-end of the HindIII site with [α-^32P]dATP using Klenow DNA polymerase (exo-).
The radiolabelled DNA fragment was separated from the remainder of the plasmid DNA on a 6% non-denaturing polyacrylamide gel. The gel (20 cm long, 0.3 mm thick) was run at 400 V in 1×TBE running buffer for about 1-2 h, until the bromophenol blue had run most of the way down the gel. […]

[3] = tested on: SW48 cell line (gastric); assay: MTT cytotoxicity assay, SW48; format: cell-based; conditions: Homo sapiens, SW48; MTT assay, 72 hour incubation; read-out: Cytotoxicity SW48 (72 hrs)
Outline: as §1

COc1cc2c(cc1OCCCC(=O)N1C[C@@H](CCl)c3c1cc(O)c1ccccc31)N=C[C@@H]1CCCCN1C2=O [Compound 13, (S)-3-(4-((S)-1-(Chloromethyl)-5-hydroxy-1,2-dihydro-3H-benzo[e]indol-3-yl)-4-oxobutoxy)-2-methoxy-7,8,9,10-tetrahydrobenzo[e]-pyrido[1,2-a][1,4]diazepin-12(6aH)-one]
IC50 [1]: 0.68 nM
number of preferred sites observed in the TyrT DNA fragment ([2]; cleavage at A sites): three
cleavage of TyrT DNA fragment ([2]; overnight incubation, 100° C. for 3 min, 8% denaturing gel (FIG. 11)): distinct cleavage patterns
IC50 [3]: 0.28 nM
